The record followed here is patent US8618054B2, “Interleukin-1 receptor antagonists, compositions, and methods of treatment” (Valorisation-Rechereche Société en Commandite, priority 2004, dated 2013).

Test [1] concerns the target T1, IL-1R/IL-1RacP receptor (Sus scrofa, UniProt A0A5G2QSI4).
T1 construct: endogenous in cells; host or cells: piglet brain microvascular endothelial cells
T1 sequence (A0A5G2QSI4 21-572): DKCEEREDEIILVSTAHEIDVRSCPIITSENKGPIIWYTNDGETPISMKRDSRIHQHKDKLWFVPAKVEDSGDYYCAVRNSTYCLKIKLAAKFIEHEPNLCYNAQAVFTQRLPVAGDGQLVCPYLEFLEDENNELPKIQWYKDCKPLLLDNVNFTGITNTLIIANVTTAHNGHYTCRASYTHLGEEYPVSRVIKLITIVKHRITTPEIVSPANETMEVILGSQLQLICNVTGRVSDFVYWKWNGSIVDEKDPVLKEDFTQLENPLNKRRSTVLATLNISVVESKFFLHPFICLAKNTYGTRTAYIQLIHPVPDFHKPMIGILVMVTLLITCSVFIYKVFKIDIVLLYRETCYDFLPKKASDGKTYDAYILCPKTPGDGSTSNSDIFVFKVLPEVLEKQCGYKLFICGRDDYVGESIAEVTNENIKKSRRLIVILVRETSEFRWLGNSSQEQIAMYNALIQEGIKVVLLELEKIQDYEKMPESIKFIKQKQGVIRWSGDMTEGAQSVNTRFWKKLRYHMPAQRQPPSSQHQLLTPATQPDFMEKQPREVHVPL
As to the kind of experiment: IL-1-induced PGE2 synthesis in piglet brain microvascular endothelial cells. The test is classed as cell-based, porcine. Particulars: for Emax: Table 4, read-out: PGE2 synthesis in endothelial cells (porcine) Emax (%); for inhibition of IL-1-induced PGE2 synthesis, compared with parent API-101: alanine scan peptides 10^−6M, endothelial cells. Here is the method:
(§1) It is well known in the art that IL-1 induces the synthesis of prostaglandin E2 (PGE2) in endothelial cells and/or chondrocytes in vitro. Therefore, human chondrocytes and piglet brain microvascular endothelial cells were pre-incubated 45-60 minutes at 37° C. with peptide API-101 (^10−6M) and human IL-1 (10 ng/ml) was added in the growing medium. After 24 hours of incubation, growth medium was collected and evaporated. PGE2 measurement was determined by RIA assay with a commercial kit (Cederlane).

Test [2] concerns the target T2, IL-1R/IL-1RacP receptor (Homo sapiens, UniProt P14778).
T2 sequence (P14778 18-569): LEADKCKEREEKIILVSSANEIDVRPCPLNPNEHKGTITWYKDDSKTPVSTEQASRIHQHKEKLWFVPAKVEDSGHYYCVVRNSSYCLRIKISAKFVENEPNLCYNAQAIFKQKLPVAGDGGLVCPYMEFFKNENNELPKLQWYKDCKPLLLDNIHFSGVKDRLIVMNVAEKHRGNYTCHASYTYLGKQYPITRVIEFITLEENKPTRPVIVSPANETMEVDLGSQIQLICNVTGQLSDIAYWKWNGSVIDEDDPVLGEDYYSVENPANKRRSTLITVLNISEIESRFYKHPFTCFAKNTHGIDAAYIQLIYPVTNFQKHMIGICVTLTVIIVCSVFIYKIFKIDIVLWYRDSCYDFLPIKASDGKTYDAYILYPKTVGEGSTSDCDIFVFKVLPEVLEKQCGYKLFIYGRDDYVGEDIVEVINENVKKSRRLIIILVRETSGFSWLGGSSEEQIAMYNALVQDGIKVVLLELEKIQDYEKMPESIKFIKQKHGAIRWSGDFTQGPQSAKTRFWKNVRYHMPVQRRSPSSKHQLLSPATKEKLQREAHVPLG
The test is described as follows: IL-1β-induced proliferation in TF-1 cells. The test is classed as cell-based. Further details: endogenous in cells; host or cells: TF-1 cells.

A short description of test [3]: TNBS-induced inflammatory bowel disease rat model, Example 6 (48 h; MPO, macroscopic, histologic). In kind it is in vivo. Set-up: macroscopic evaluation (median score): scale not given here. As to the method:
Colon inflammation was induced by intra-rectal/colon administration of the hapten trinitrobenzene sulphonic acid (TNBS) on male Sprague-Dawley rats (175-200 g) (Bouma, Nature Rev, 2003; Morris, Gastroenterology, 1989). Animals were anesthetized with isoflurane and TNBS dissolved in 50% ethanol (vol/vol). 120 mg/ml (TNBS) was administered into the colon (total volume of 0.25 ml per rat) using a polyethylene tube (PE50). The cannula was inserted at 8 cm from the anus and kept in place for at least 15 min after TNBS administration in order to prevent expulsion of the solution. […] A third group (control) was not injected with TNBS. Six days after administration of TNBS, rats were killed by CO2 inhalation. Day 6 was chosen as an endpoint because by day 7 spontaneous tissue regeneration begins and this can mask the therapeutic effect of the tested peptide or peptide derivative. Colon was removed and examined macroscopically (adhesions, ulcerations, discoloration and bleeding) and histologically (neutrophil infiltration, epithelial injury, crypt distortion and ulcerations) (Anthony et al. 1995; Padol et al. 2000; Dieleman, L A, et al. 1997; Torres M I et al. 1999). Two animals per group were studied.
Colon inflammation was induced by intra-rectal/colon administration of the hapten trinitrobenzene sulphonic acid (TNBS) as described in Example 4. Two hours prior to TNBS administration, peptides, peptidomimetics or 0.9% saline were administered intravenously (iv) via the caudal vein (various concentrations of mg/kg/d) (total volume of 0.3 ml). […] A third group (control) was not injected with TNBS. […] Also, these IL-1R antagonists were given twice a day (BID); Remicade® (anti-TNFα) (10 mg/kg) and dexamethasone (0.75 mg/kg) were administered intraperitoneally but only once a day (qd). The intrarectal administration (ir) of 101.10, 101.113 (1 and 2.5 mg/kg), and 5-ASA (50 mg/kg) was done one hour after TNBS administration, and twice a day, except for 5-ASA which is once a day. Finally, 101.10 (1-5 mg/kg) was also administered orally by gavage (po), twice a day. Forty-eight hours after administration of TNBS, rats were killed by CO2 inhalation. Colon was removed and assessed macroscopically (adhesions, ulcerations, discoloration and bleeding) and histologically (neutrophil infiltration, epithelial injury, crypt distortion and ulcerations). One to seven animals per group were studied, according to treatments. Myeloperoxidase (MPO) activity was measured on tissue lysates.

Test [4] has as its target T2, IL-1R/IL-1RacP receptor. The test is described as follows: IL-1-induced PGE2 synthesis in human chondrocytes. In kind it is cell-based. Set-up: endogenous in cells. Particulars: alanine scan peptides 10^−6M. Here is the method:
as §1

Setting [5] is: Table 4: TF-1 proliferation and PGE2 synthesis in endothelial cells, derivatives of 101.107.
[6] abbreviates: Table 5, derivatives of 101.113.
Setting [7] is: Continuous infusion (ip), 8.0 mg/kg/d.
[8] abbreviates: Intrarectal administration, 50.0-qd mg/kg/d.
The mark [9] stands for this setting: Intermittent injection (ip), 10.0-qd mg/kg/d.

Marks after values point to notes of the source that are not given here. Where a SMILES comes first, the peptide text is derived from it. Where no end group is shown, it is not given here. [ ]: non-standard residue; d: D form.

Turning to `CC(C)C[C@@H](NC(=O)[C@@H](CCC(=O)O)NC(=O)[C@H]1CCCN1C(=O)[C@H](NC(=O)[C@@H](Cc1ccc(O)cc1)NC(=O)[C@H](N)CCCCN)[C@H](C)O)C(=O)N[C@H](C)C(N)=O` [API-101.114, KYTPELA] (HELM PEPTIDE1{[dK].[dY].[dT].[dP].[dE].[dL].[dA].[am]}$$$$V2.0; N-terminus and C-terminus assumed), the Emax on IL-1R/IL-1RacP receptor [1] is 50%. In addition, the “activity of the peptide, in words” value on IL-1R/IL-1RacP receptor [2] (setting [5]) is recorded as “maintains its activity”.

With `CC(C)C[C@@H](NC(=O)[C@@H](CCC(=O)O)NC(=O)[C@H]1CCCN1C(=O)[C@H](NC(=O)[C@@H](Cc1ccc(O)cc1)NC(=O)[C@H](N)CCCN)[C@H](C)O)C(=O)N[C@H](C)C(N)=O` [API-101.115, XYTPELA (X = Ornithine)] (HELM PEPTIDE1{[NCCC[C@@H](N)C(=O)[*:2]].[dY].[dT].[dP].[dE].[dL].[dA].[am]}$$$$V2.0; N-terminus and C-terminus assumed), at IL-1R/IL-1RacP receptor [2] (setting [5]), the “activity of the peptide, in words” value is “maintains its activity”.

For RFVPELA [API-101.127], the “activity of the peptide, in words” value with IL-1R/IL-1RacP receptor [2] (setting [6]) is “completely abolished the activity”.

As for `CC(C)C[C@@H](NC(=O)[C@@H](CC(=O)O)NC(=O)[C@H]1CCCN1C(=O)[C@H](NC(=O)[C@@H](Cc1ccc(O)cc1)NC(=O)[C@H](N)CCCNC(=N)N)[C@H](C)O)C(=O)N[C@H](C)C(N)=O` [API-101.117, RYTPDLA] (HELM PEPTIDE1{[dR].[dY].[dT].[dP].[dD].[dL].[dA].[am]}$$$$V2.0; N-terminus and C-terminus assumed), on IL-1R/IL-1RacP receptor [1], the Emax is 100%.

Regarding `CC(C)C[C@@H](NC(=O)[C@@H](CCC(=O)O)NC(=O)[C@H]1CCCN1C(=O)[C@H](NC(=O)[C@@H](Cc1ccc(O)cc1)NC(=O)[C@@H](N)CCCNC(=N)N)[C@H](C)O)C(N)=O` [API-101.135, *RYTPEL], the “activity of the peptide, in words” value at IL-1R/IL-1RacP receptor [2] (setting [6]) was “lowered but not lost completely”.

For “Kineret: natural soluble receptor IL-1Ra mimetic, Anakinra, developed by Amgen [reference compound]”, in test [3] (setting [7]), the “MPO (% of TNBS + Saline)” value is 63 % of TNBS + Saline and the “histologic evaluation (median score)” value is given as 2 (Small ulcer (<5 crypts)).

“XRYTPELA (X = Acetyl) (Ac-[dR][dY][dT][dP][dE][dL][dA]) [API-101.121]”: the “activity of the peptide, in words” value with IL-1R/IL-1RacP receptor [2] (setting [5]) is “completely lost”.

Turning to `CC(C)C[C@@H](NC(=O)[C@@H](CCC(=O)O)NC(=O)[C@H]1CCCN1C(=O)[C@H](NC(=O)[C@@H](Cc1ccccc1)NC(=O)[C@H](N)CCCNC(=N)N)[C@H](C)O)C(N)=O` [API-101.132, RFTPEL] (HELM PEPTIDE1{[dR].[dF].[dT].[dP].[dE].[dL].[am]}$$$$V2.0; N-terminus and C-terminus assumed), the “activity of the peptide, in words” value at IL-1R/IL-1RacP receptor [2] (setting [6]) was “relatively decreased”.

As to `CC(C)C[C@@H](NC(=O)[C@@H](CCC(=O)O)NC(=O)[C@H]1CCCN1C(=O)[C@H](NC(=O)[C@@H](Cc1c[nH]c2ccccc12)NC(=O)[C@H](N)CCCNC(=N)N)[C@H](C)O)C(N)=O` [API-101.128, RWTPEL], the Emax on IL-1R/IL-1RacP receptor [2] (TF-1, Table 5) was determined as 100%. For the same compound, the “activity of the peptide, in words” value on IL-1R/IL-1RacP receptor [2] (setting [6]) was “relatively decreased”.

On to “KYTPEL ([dK][dY][dT][dP][dE][dL]) [API-101.133]”, for which the “activity of the peptide, in words” value in the test with IL-1R/IL-1RacP receptor [2] (setting [6]) is reported as “little or no activity”.

`Nc1ccc(O)c(C(=O)O)c1` [5-ASA, reference compound]: in test [3] (setting [8]), the “MPO (% of TNBS + Saline)” value is on record as 49 % of TNBS + Saline, the “histologic evaluation (median score)” value was 3.3 and the “macroscopic evaluation (median score)” value stood at 1.5.

As for `CC(C)C[C@@H](NC(=O)[C@@H](CCC(=O)O)NC(=O)[C@H]1CCCN1C(=O)[C@H](NC(=O)[C@@H](Cc1c[nH]c2ccccc12)NC(=O)[C@H](N)CCCNC(=N)N)[C@H](C)O)C(=O)N[C@H](C)C(N)=O` [API-101.116, RWTPELA] (HELM PEPTIDE1{[dR].[dW].[dT].[dP].[dE].[dL].[dA].[am]}$$$$V2.0; N-terminus and C-terminus assumed), the Emax at IL-1R/IL-1RacP receptor [1] is 45%.

Regarding APRYTAELA [API-101.5], the “inhibition of IL-1-induced PGE2 synthesis, compared with parent API-101” value with IL-1R/IL-1RacP receptor [1] and with IL-1R/IL-1RacP receptor [4] was “lost almost all activity” in each case.

Turning to APRYTVEAA [API-101.7], the “inhibition of IL-1-induced PGE2 synthesis, compared with parent API-101” value in the test with IL-1R/IL-1RacP receptor [1] and with IL-1R/IL-1RacP receptor [4] was “lost almost all activity” in each case.

Take `C[C@@H]1C[C@H]2[C@@H]3CCC4=CC(=O)C=C[C@]4(C)[C@@]3(F)[C@@H](O)C[C@]2(C)[C@@]1(O)C(=O)CO` [Dexamethasone, dexamethasone, reference compound]: the “MPO (% of TNBS + Saline)” value in test [3] (Intermittent injection (ip), 0.75-qd mg/kg/d) is 60 % of TNBS + Saline.

Regarding XYTPEL (X = Ornithine) [API-101.126], in the test with IL-1R/IL-1RacP receptor [2] (setting [6]), the “activity of the peptide, in words” value is “little or no activity”.

As for “Remicade: anti-TNFα [reference compound]”, in test [3] (setting [9]), the “MPO (% of TNBS + Saline)” value is reported as 88 ± 41 % of TNBS + Saline, the “histologic evaluation (median score)” value was 2.5 (1-3.75)** and the “macroscopic evaluation (median score)” value came to 0.5.

With `CC(C)C[C@@H](NC(=O)[C@@H](CCC(=O)O)NC(=O)[C@H]1CCCN1C(=O)[C@H](NC(=O)[C@@H](Cc1ccc(O)cc1)NC(=O)[C@H](N)CCCNC(N)=O)[C@H](C)O)C(N)=O` [API-101.134, XYTPEL (X = Citrulline)], at IL-1R/IL-1RacP receptor [2] (setting [6]), the “activity of the peptide, in words” value is “little or no activity”.
